Test results from patent US12653191B2, “Active compound combinations” (Bayer Aktiengesellschaft, priority 2020, dated 2026).
“And” between values parts separate entries of the source, which are not always exact repeats. Identical values can stand only once. Like-named read-outs stand apart in the source and are kept apart here.

Assays:
Diaporthe citri = test: in vitro-Test with fungal microorganisms, Method A (tables F1-F11); assay type: cell-based; conditions: applied alone
Method: (§1) Example: In Vitro-Test with Fungal Microorganisms
(§2) Wells of 96-well microtiter plates are filled with 10 μl of a preparation of test compound or compound combination in methanol+emulsifier alkylaryl-polyglycol-ether. Thereafter, the solvent is evaporated in a hood. At the next step, 100 μl of liquid potato dextrose medium is given into each well, that has been amended with an appropriate concentration of spores or mycelium suspension of the test fungus.
(§3) With the aid of a photometer, the extinction in all wells is measured at the wavelength of 620 nm.
(§4) The microtiter plates are incubated at 20° C. and 85% relative humidity. The inhibition of growth is determined again photometrically 3-5 days after the application. Efficacy is calculated in relation to the untreated control, 0% efficacy means fungal growth as high as in untreated control while 100% efficacy means no fungal growth is measured.
(§5) The data in tables A1 to A12, B1 to B14, C1 to C10, D1 to D8, E1 to E8, F1 to F11, G1 to G4, H1 to H4 and I1 to I5 were collected according to Method A. The data in tables A13 to A22, B15 to B18, C11 to C20, E9 to E16, F12 to F15, G5 to G15, H5 to H8, I6 to I11 and J1 to J11 were collected according to Method B.

[1] = system: Colletotrichum lindemuthianum; test: in vitro-Test with fungal microorganisms, Method A (tables D1-D8); assay type: cell-based
Method: as §1, §2, §3, §4, §5

[2] = system: Ustilago segetum var. avenae; test: in vitro-Test with fungal microorganisms, Method B (tables I6-I11); assay type: cell-based; conditions: 0.2 ppm
Method: as §1
as §2, with “30” for “10”, “200” for “100”, “growth” for “potato dextrose”, “given,” for “given into each well,”
(§6) With the aid of a photometer, the extinction in all wells is measured at the wavelength of 600 nm.
(§7) The microtiter plates are incubated for 3 to 7 days at 20° C. and 85% relative humidity. After the incubation inhibition of growth is determined photometrically. Efficacy is calculated in relation to the untreated control, 0% efficacy means fungal growth as high as in untreated control while 100% efficacy means no fungal growth is measured.
as §5

Cercospora beticola [3] = test: in vitro-Test with fungal microorganisms, Method B (tables C11-C20); assay type: cell-based
Method: as §1
as §2, with “30” for “10”, “200” for “100”, “growth” for “potato dextrose”, “given,” for “given into each well,”
as §6, §7, §5

Cordana musae [4] = test: in vitro-Test with fungal microorganisms, Method A (tables E1-E8); assay type: cell-based; conditions: for Efficacy %: single substance
Method: as §1, §2, §3, §4, §5

Fusarium culmorum [5] = test: in vitro-Test with fungal microorganisms, Method B (tables G5-G15); assay type: cell-based
Method: as §1
as §2, with “30” for “10”, “200” for “100”, “growth” for “potato dextrose”, “given,” for “given into each well,”
as §6, §7, §5

Botrytis cinerea [6] = test: in vitro-Test with fungal microorganisms, Method B (tables B15-B18); assay type: cell-based; conditions: alone
Method: as §1
as §2, with “30” for “10”, “200” for “100”, “growth” for “potato dextrose”, “given,” for “given into each well,”
as §6, §7, §5

Cercospora beticola [7] = test: in vitro-Test with fungal microorganisms, Method A (tables C1-C10); assay type: cell-based
Method: as §1, §2, §3, §4, §5

Botrytis cinerea [8] = test: in vitro-Test with fungal microorganisms, Method A (tables B1-B14); assay type: cell-based
Method: as §1, §2, §3, §4, §5

Alternaria alternate = test: in vitro-Test with fungal microorganisms, Method A (tables A1-A12); assay type: cell-based, Alternaria alternata; conditions: applied alone
Method: as §1, §2, §3, §4, §5

Cordana musae [9] = test: in vitro-Test with fungal microorganisms, Method B (tables E9-E16); assay type: cell-based; conditions: for Efficacy: single active; for Efficacy %: single substance
Method: as §1
as §2, with “30” for “10”, “200” for “100”, “growth” for “potato dextrose”, “given,” for “given into each well,”
as §6, §7, §5

Alternaria alternata = test: in vitro-Test with fungal microorganisms, Method B (tables A13-A22); assay type: cell-based; conditions: single compound
Method: as §1
as §2, with “30” for “10”, “200” for “100”, “growth” for “potato dextrose”, “given,” for “given into each well,”
as §6, §7, §5

Colletotrichum coccodes = test: in vitro-Test with fungal microorganisms, Method B (tables J1-J11); assay type: cell-based
Method: as §1
as §2, with “30” for “10”, “200” for “100”, “growth” for “potato dextrose”, “given,” for “given into each well,”
as §6, §7, §5

[10] = system: Ustilago segetum var. avenae; test: in vitro-Test with fungal microorganisms, Method A (tables I1-I5); assay type: cell-based; conditions: alone
Method: as §1, §2, §3, §4, §5

Fusarium culmorum [11] = test: in vitro-Test with fungal microorganisms, Method A (tables G1-G4); assay type: cell-based; conditions: Fusarium culmorum, alone, read-out: Efficacy
Method: as §1, §2, §3, §4, §5

[12] = Botrytis cinerea, read-out: Efficacy
[13] = Botrytis cinerea, alone, read-out: Efficacy %

Cn1cc(C(=O)Nc2ccc(F)cc2-c2ccc(Cl)c(Cl)c2)c(C(F)F)n1 [(2.002) bixafen, bixafen]
Efficacy (Diaporthe citri; 0.2 ppm): 0% and 5% | Efficacy (Diaporthe citri; 1.0 ppm): 0% and 5% | Efficacy % ([1]; single active at 0.008 ppm): 6% and 0% | Efficacy % ([1]; single active at 0.04 ppm): 0% | Efficacy % ([1]; single active at 0.2 ppm): 0% | Efficacy % [2]: 44% | Efficacy % (Cercospora beticola [3]; 1 ppm): 0% | Efficacy % (Cercospora beticola [3]; single compound, 0.2 ppm): 14% | Efficacy % (Cercospora beticola [3]; single compound, 1 ppm): 20% | Efficacy % (Cordana musae [4]; 0.008 ppm): 0% and 8% | Efficacy % (Cordana musae [4]; 0.04 ppm): 2% and 0% | Efficacy % (Cordana musae [4]; 0.2 ppm): 0% | Efficacy % (Cordana musae [4]; 1.0 ppm): 0% | Efficacy (Fusarium culmorum [5]; 0.008 ppm alone): 2% | Efficacy (Fusarium culmorum [5]; 0.04 ppm alone): 17% | Efficacy (Fusarium culmorum [5]; single active compound, 0.008 ppm): 2% | Efficacy (Fusarium culmorum [5]; single active compound, 0.04 ppm): 7% | Efficacy (Fusarium culmorum [5]; single active compound, 0.2 ppm): 11% | Efficacy (Fusarium culmorum [5]; single active compound, 1 ppm): 18% | Efficacy % (Botrytis cinerea [6]; 0.008 ppm): 6% | Efficacy % (Botrytis cinerea [6]; 0.2 ppm): 0% | Efficacy % (Botrytis cinerea [6]; 1 ppm): 66% | Efficacy % (Cercospora beticola [7]; 0.2 ppm): 0% | Efficacy % (Cercospora beticola [7]; 1.0 ppm): 0% | Efficacy (Botrytis cinerea [8]; 0.04 ppm): 22% | Efficacy (Botrytis cinerea [8]; 0.2 ppm): 63% | Efficacy (Botrytis cinerea [8]; 1.0 ppm): 67% | Efficacy % (Alternaria alternate; 0.008 ppm): 29% | Efficacy % (Alternaria alternate; 0.04 ppm): 23% | Efficacy % (Alternaria alternate; 0.2 ppm): 66% | Efficacy % (Alternaria alternate; 1.0 ppm): 46% | Efficacy (Cordana musae [9]; 0.008 ppm): 17% | Efficacy (Cordana musae [9]; 0.04 ppm): 0% | Efficacy (Cordana musae [9]; 0.2 ppm): 0% | Efficacy (Cordana musae [9]; 1 ppm): 2% | Efficacy % (Cordana musae [9]; 0.008 ppm): 0% | Efficacy % (Cordana musae [9]; 0.04 ppm): 0% | Efficacy % (Cordana musae [9]; 0.2 ppm): 0% | Efficacy (Alternaria alternata; 0.008 ppm): 13% and 23% | Efficacy (Alternaria alternata; 0.04 ppm): 67% | Efficacy (Alternaria alternata; 1 ppm): 59% and 85% | Efficacy % (Colletotrichum coccodes; 0.008 ppm): 33% | Efficacy % (Colletotrichum coccodes; 0.04 ppm): 45% | Efficacy % (Colletotrichum coccodes; 0.2 ppm): 0% | Efficacy % (Colletotrichum coccodes; 1 ppm): 0% | Efficacy % (Colletotrichum coccodes; single active compound at 0.008 ppm): 30% | Efficacy % ([10]; 0.008 ppm): 0% | Efficacy % ([10]; 0.04 ppm): 0% | Efficacy % ([10]; 0.2 ppm): 100% | Efficacy % ([10]; 1.0 ppm): 100%

CCN(C)C=Nc1cc(C)c(Oc2ccccc2F)cc1Cl [(15.064), N′-[2-chloro-4-(2-fluorophenoxy)-5-methylphenyl]-N-ethyl-N-methylimidoformamide]
inhibition of growth at 2 ppm (Diaporthe citri; Diaporthe citri, 2.0 ppm, read-out: Efficacy): 0% | inhibition of growth at 10 ppm (Diaporthe citri; Diaporthe citri, 10.0 ppm, read-out: Efficacy): 0% | inhibition of growth at 0.08 ppm ([1]; Colletotrichum lindemuthianum, mixing partner alone, 0.08 ppm, read-out: Efficacy %): 16% | inhibition of growth at 0.4 ppm ([1]; Colletotrichum lindemuthianum, mixing partner alone, 0.4 ppm, read-out: Efficacy %): 0% | inhibition of growth at 2 ppm ([1]; Colletotrichum lindemuthianum, mixing partner alone, 2.0 ppm, read-out: Efficacy %): 0% | inhibition of growth at 0.4 ppm (Cordana musae [4]; Neocordana musae, mixing partner alone, 0.4 ppm, read-out: Efficacy %): 0% | inhibition of growth at 2 ppm (Cordana musae [4]; Neocordana musae, mixing partner alone, 2.0 ppm, read-out: Efficacy %): 0% | inhibition of growth at 10 ppm (Cordana musae [4]; Neocordana musae, mixing partner alone, 10.0 ppm, read-out: Efficacy %): 27% | inhibition of growth at 2 ppm (Fusarium culmorum [11]; 2.0 ppm): 0% | inhibition of growth at 10 ppm (Fusarium culmorum [11]; 10.0 ppm): 1% | inhibition of growth at 0.08 ppm (Botrytis cinerea [8]; [12]): 5% | inhibition of growth at 0.4 ppm (Botrytis cinerea [8]; Botrytis cinerea, 0.4 ppm, read-out: Efficacy): 21% | inhibition of growth at 2 ppm (Botrytis cinerea [8]; [12]): 2% | inhibition of growth at 0.08 ppm (Botrytis cinerea [8]; [13]): 9% | inhibition of growth at 2 ppm (Botrytis cinerea [8]; [13]): 5% | inhibition of growth at 0.08 ppm (Alternaria alternate; Alternaria, 0.08 ppm, read-out: Efficacy %): 2% | inhibition of growth at 0.4 ppm (Alternaria alternate; Alternaria, 0.4 ppm, read-out: Efficacy %): 5% | inhibition of growth at 2 ppm (Alternaria alternate; Alternaria, 2.0 ppm, read-out: Efficacy %): 12% | inhibition of growth at 10 ppm (Alternaria alternate; Alternaria, 10.0 ppm, read-out: Efficacy %): 50%
